In general, Ki refers to a measure of affinity in units of concentration, obtained from inhibition or displacement. Low readings indicate higher affinity, high ones lower affinity. For orientation: ED50 means the midpoint of the dose-response relation. High values mean weaker potency, low ones greater potency.

Molecules are shown by their SMILES.

This passage reports Ki, ED50 and Release results from ChEMBL document CHEMBL1130983, “New acetylene based histamine H3 receptor antagonists derived from the marine natural product verongamine” (Bioorg Med Chem Lett, 1998).

In test [1] the target is T1, Histamine H3 receptor (Rattus norvegicus, UniProt Q9QYN8). In words: Antagonistic activity was evaluated against histamine H3 receptor using [3H]- N-alpha-methylhistamine as radioligand in experiment 2. Type of test: functional.
T1 sequence (Q9QYN8 whole entry): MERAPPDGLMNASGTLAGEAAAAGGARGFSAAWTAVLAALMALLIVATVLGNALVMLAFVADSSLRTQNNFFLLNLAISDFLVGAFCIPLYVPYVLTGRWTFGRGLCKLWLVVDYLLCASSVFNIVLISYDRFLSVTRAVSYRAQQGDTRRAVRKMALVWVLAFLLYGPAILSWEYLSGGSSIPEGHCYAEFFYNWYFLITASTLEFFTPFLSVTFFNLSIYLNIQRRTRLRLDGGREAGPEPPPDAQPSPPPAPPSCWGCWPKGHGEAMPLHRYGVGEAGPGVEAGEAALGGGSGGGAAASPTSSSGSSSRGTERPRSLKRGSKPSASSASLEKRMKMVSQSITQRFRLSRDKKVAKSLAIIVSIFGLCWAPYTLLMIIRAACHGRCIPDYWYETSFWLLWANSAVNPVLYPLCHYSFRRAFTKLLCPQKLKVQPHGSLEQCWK
The species named for another test is Rattus norvegicus. In words: Effective dose was evaluated for blood brain penetration using ex vivo binding techniques. Type of test: functional.
The species named for the next test is Cavia porcellus. The test is described as follows: In vitro activity on K+ induced R-alpha methyl histamine mediated inhibition of norepinephrine release from guinea pig cardiac synaptosomes. The format is functional.
The target in test [2] is T1, Histamine H3 receptor. The test is described as follows: Inhibition of [3H]- N-alpha-methylhistamine from histamine H3 receptor.

For `S=C(NC1CCCCC1)N1CCC(c2cnc[nH]2)CC1` [THIOPERAMIDE], the inhibition constant (Ki) on Histamine H3 receptor [1] came to 1.54 nM. This lies in the single-digit nanomolar range.
On to `C(#CCCC1CCCCC1)CCc1c[nH]cn1`, for which, in the test listed under Rattus norvegicus, the 50% effect level (ED50) was put at a dose of 0.43 mg/kg. The molecule further displayed a Release in the test listed under Cavia porcellus of 122%.
At Histamine H3 receptor [2], `Cn1cncc1CCN` displayed an inhibition constant (Ki) of 1 nM. The same molecule had a Release in the test listed under Cavia porcellus of 106%.
Regarding `COc1ccc(C/C(=N\O)C(=O)NCCc2c[nH]cn2)cc1Br` [VERONGAMINE], at Histamine H3 receptor [2], the inhibitory constant (Ki) is 0.5 nM.
For the molecule `C(#CCCC1CCCC1)CCc1c[nH]cn1`, the 50% effect level in the test listed under Rattus norvegicus (ED50) was put at a dose of 0.48 mg/kg. The same molecule came in with a Release in the test filed under Cavia porcellus of 111%.
